Drawing on ChEMBL document CHEMBL5303761, “Data for DCP probe BI-3231” (2023), this text covers inhibition, residual activity and activity for 2 compounds.

For series [1], the target named is 5-hydroxytryptamine receptor 7 (Homo sapiens) (UniProt P34969). As to conditions: Compound concentration 10.0 uM; call rule not given here.
Series [2] has as its target T1, 5-hydroxytryptamine receptor 3A (Homo sapiens) (UniProt P46098).
T1 sequence (whole entry): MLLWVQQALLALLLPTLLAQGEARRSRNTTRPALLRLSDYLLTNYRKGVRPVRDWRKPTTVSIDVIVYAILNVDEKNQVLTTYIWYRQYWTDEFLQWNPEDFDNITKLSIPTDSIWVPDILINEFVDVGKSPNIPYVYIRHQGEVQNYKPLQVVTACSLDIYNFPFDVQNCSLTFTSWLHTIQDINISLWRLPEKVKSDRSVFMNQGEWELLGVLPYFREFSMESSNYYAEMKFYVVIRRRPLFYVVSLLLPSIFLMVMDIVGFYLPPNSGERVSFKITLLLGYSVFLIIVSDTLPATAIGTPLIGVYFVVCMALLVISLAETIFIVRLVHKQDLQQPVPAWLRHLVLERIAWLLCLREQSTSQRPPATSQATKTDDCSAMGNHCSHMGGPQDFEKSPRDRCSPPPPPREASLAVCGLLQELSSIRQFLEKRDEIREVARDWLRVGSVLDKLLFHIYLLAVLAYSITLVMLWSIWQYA
The series can be described thus: 5HT3/H Eurofins SafetyScreen44 (BI). Conditions: Compound concentration 10.0 uM.

Series [3] has as its target 5-hydroxytryptamine receptor 2A (Homo sapiens) (UniProt P28223). Conditions: Compound concentration 10.0 uM.
For series [4], the target named is T2, Muscarinic acetylcholine receptor M1 (Homo sapiens) (UniProt P11229).
T2 sequence (whole entry): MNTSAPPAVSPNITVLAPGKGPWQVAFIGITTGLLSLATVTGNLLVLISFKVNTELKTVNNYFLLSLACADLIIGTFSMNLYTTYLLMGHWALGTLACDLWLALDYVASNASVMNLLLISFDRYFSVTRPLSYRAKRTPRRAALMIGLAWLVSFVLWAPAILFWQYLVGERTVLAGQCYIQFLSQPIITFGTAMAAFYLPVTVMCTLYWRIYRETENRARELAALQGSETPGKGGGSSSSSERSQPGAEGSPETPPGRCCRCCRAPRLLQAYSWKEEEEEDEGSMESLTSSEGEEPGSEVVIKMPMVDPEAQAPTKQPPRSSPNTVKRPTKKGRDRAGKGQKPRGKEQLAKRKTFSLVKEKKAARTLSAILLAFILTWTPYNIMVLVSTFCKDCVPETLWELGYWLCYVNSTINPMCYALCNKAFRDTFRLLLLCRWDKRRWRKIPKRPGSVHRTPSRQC
The series can be described thus: M1/H Eurofins SafetyScreen44 (BI). Conditions: Compound concentration 10.0 uM.

The target in series [5] is Muscarinic acetylcholine receptor M3 (Homo sapiens) (UniProt P20309). The series can be described thus: M3/H Eurofins SafetyScreen44 (BI). Conditions: Compound concentration 10.0 uM.
Series [6] addresses Alpha-1B adrenergic receptor (Homo sapiens) (UniProt P35368). Conditions: Compound concentration 10.0 uM.
Series [7] concerns the target Muscarinic acetylcholine receptor M4 (Homo sapiens) (UniProt P08173). As to conditions: Compound concentration 10.0 uM.
Series [8] addresses Prostaglandin G/H synthase 1 (Homo sapiens) (UniProt P23219). The series can be described thus: COX-1 Eurofins SafetyScreen44 (BI). Conditions: Compound concentration 10.0 uM.
Series [9] has as its target T3, Alpha-1A adrenergic receptor (Homo sapiens) (UniProt P35348).
T3 sequence (whole entry): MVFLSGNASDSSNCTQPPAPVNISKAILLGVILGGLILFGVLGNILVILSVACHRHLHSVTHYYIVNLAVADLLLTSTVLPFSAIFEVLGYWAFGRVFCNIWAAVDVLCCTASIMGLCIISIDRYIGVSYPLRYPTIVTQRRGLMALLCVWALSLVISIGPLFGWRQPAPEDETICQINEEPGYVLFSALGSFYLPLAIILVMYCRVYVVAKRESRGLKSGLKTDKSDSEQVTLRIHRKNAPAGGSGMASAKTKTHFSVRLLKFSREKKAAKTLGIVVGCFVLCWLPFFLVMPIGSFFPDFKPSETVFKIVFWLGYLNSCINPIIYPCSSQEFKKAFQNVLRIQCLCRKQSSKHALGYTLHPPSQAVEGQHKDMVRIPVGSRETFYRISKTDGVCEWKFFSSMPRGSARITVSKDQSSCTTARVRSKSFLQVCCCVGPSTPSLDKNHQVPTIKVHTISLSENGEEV
As to conditions: Compound concentration 10.0 uM.

Series [10] concerns the target Adenosine receptor A2a (Homo sapiens) (UniProt P29274). The series is described as follows: A2A/H Eurofins SafetyScreen44 (BI). Conditions: filed as antagonist, Compound concentration 10.0 uM.
Series [11] concerns the target L-type Ca2+ channel (dihydropyridine site), Cav1.2 alpha-1C (Rattus norvegicus, UniProt P22002). The series is described as follows: CA+/DHPSI/R Eurofins SafetyScreen44 (BI). As to conditions: rat brain, probe [3H](+)PN200-110, compound concentration 10 uM, read-out: % Ctrl.
The target of series [12] is Sodium-dependent dopamine transporter (Homo sapiens) (UniProt Q01959). Conditions: Compound concentration 10.0 uM.
Chain of Sodium-dependent dopamine transporter (Homo sapiens) (Q01959 whole entry): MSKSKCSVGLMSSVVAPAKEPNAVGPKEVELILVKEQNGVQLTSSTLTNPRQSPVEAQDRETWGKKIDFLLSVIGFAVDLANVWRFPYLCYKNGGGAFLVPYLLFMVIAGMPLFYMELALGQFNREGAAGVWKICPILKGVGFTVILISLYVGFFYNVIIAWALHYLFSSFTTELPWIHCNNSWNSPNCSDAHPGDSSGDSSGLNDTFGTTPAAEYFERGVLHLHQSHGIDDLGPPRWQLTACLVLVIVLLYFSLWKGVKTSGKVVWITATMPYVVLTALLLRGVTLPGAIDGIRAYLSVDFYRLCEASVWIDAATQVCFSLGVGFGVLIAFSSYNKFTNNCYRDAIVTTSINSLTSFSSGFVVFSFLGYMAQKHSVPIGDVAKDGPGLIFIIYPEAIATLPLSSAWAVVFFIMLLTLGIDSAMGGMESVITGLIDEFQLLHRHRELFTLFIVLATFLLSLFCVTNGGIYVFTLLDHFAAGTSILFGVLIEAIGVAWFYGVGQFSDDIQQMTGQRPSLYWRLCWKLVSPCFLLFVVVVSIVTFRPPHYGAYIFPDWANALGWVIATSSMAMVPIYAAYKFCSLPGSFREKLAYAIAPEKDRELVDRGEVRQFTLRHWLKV
Series [13] concerns the target D(2) dopamine receptor (Homo sapiens) (UniProt P14416). The series is described as follows: D2SH_AGON Eurofins SafetyScreen44 (BI). Conditions: filed as agonist, Compound concentration 10.0 uM.
In series [14] the target is T1, 5-hydroxytryptamine receptor 3A (Homo sapiens). Conditions: Compound concentration 10.0 uM.
In series [15] the target is Histamine H1 receptor (Homo sapiens) (UniProt P35367). As to conditions: Compound concentration 10.0 uM.
Chain of Histamine H1 receptor (Homo sapiens) (P35367 whole entry): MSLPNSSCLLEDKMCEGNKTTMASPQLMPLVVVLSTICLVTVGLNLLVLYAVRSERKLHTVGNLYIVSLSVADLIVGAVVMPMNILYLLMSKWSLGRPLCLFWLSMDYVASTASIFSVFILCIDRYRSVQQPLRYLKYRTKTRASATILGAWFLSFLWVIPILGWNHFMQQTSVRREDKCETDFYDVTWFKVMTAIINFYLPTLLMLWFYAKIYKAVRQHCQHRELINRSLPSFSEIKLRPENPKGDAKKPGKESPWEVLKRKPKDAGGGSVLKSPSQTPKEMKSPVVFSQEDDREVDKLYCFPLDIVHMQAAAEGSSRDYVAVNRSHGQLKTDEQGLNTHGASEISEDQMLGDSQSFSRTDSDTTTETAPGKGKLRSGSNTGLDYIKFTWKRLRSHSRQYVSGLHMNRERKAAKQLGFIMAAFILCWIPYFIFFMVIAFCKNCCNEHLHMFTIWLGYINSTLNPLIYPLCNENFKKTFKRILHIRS
Series [16] concerns the target Sodium-dependent serotonin transporter (Homo sapiens) (UniProt P31645). Conditions: Compound concentration 10.0 uM.
The target in series [17] is T4, Muscarinic acetylcholine receptor M2 (Homo sapiens) (UniProt P08172).
T4 sequence (whole entry): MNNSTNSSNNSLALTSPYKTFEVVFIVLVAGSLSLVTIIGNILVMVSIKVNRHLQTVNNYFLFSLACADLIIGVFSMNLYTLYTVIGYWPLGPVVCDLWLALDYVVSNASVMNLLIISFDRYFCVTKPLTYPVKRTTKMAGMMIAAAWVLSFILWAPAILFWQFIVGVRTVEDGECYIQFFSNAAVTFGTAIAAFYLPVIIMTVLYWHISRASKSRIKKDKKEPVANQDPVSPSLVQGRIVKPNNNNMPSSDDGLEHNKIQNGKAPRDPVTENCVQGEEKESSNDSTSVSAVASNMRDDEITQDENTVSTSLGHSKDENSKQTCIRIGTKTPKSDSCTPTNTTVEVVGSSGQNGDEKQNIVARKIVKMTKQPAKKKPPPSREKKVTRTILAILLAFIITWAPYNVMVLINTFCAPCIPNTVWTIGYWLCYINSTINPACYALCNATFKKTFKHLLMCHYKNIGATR
As to conditions: Compound concentration 10.0 uM.

Series [18] concerns the target Vasopressin V1a receptor (Homo sapiens) (UniProt P37288). The series can be described thus: V1A/HUM Eurofins SafetyScreen44 (BI). Conditions: Compound concentration 10.0 uM.
For series [19], the target named is Histamine H2 receptor (Homo sapiens) (UniProt P25021). As to conditions: Compound concentration 10.0 uM.
Chain of Histamine H2 receptor (Homo sapiens) (P25021 whole entry): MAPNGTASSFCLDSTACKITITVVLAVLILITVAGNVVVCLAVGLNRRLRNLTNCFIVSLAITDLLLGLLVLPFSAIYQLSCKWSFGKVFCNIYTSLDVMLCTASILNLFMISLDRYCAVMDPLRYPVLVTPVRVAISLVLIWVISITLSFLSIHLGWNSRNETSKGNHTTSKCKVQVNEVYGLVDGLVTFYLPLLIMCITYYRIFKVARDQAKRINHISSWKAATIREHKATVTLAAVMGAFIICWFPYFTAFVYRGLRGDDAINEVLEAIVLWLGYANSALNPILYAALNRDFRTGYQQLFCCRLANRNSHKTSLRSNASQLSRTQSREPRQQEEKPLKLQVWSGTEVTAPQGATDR

Chain of 5-hydroxytryptamine receptor 7 (Homo sapiens) (P34969 whole entry): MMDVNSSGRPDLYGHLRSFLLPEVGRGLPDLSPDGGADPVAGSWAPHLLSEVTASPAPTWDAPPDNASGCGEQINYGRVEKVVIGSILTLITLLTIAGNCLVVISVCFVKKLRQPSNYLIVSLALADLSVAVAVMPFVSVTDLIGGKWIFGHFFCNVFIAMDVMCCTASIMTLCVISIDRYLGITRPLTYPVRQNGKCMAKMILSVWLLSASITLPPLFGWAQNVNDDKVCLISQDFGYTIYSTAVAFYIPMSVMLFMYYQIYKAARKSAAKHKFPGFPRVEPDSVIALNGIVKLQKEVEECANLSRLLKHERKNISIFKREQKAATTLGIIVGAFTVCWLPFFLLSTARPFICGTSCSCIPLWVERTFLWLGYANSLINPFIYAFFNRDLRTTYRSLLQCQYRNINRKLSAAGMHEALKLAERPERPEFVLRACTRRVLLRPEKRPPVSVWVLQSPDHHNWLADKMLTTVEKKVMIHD
Chain of 5-hydroxytryptamine receptor 2A (Homo sapiens) (P28223 whole entry): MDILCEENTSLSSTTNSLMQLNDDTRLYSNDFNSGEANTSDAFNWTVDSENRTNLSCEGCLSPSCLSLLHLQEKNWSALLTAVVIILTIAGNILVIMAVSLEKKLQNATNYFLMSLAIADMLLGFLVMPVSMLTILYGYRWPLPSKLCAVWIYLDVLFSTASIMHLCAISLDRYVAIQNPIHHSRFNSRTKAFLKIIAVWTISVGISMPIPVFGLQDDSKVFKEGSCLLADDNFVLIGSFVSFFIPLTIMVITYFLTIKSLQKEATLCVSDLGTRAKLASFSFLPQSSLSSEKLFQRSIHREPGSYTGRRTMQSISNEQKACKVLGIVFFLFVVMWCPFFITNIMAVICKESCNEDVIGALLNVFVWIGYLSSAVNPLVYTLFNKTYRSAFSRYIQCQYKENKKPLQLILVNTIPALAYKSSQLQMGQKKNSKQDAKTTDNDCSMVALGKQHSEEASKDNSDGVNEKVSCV
Chain of Alpha-1B adrenergic receptor (Homo sapiens) (P35368 whole entry): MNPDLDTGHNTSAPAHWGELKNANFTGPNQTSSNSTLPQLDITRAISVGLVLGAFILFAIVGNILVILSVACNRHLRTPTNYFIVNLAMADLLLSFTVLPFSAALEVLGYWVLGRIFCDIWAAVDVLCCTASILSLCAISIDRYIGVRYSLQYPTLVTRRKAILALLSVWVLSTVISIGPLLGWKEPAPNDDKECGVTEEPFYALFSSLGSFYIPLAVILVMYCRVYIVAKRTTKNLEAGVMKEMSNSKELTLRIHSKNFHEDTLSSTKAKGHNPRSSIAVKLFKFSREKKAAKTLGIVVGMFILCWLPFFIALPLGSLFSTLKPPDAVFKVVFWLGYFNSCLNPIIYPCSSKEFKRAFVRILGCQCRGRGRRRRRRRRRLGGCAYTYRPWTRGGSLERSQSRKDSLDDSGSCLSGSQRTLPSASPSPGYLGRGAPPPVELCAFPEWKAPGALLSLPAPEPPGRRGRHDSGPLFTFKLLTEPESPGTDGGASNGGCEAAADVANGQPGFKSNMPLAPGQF
Chain of Sodium-dependent serotonin transporter (Homo sapiens) (P31645 whole entry, looked up): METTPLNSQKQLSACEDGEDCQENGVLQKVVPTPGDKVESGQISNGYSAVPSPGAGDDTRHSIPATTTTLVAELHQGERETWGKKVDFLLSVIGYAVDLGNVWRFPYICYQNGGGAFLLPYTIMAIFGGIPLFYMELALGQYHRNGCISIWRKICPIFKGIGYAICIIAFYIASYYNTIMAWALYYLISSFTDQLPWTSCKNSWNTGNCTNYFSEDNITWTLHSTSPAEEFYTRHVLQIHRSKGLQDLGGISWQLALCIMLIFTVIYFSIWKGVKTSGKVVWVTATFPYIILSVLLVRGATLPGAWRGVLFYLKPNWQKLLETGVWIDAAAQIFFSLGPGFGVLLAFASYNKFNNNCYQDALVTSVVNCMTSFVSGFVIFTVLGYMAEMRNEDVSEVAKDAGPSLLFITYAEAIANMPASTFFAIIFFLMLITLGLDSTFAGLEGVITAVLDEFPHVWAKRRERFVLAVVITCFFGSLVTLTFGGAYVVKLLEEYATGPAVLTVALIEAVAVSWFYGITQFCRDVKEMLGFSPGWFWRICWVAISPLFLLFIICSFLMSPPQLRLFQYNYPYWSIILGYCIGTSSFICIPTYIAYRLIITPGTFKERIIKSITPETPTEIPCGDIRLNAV
Chain of Muscarinic acetylcholine receptor M4 (Homo sapiens) (P08173 whole entry): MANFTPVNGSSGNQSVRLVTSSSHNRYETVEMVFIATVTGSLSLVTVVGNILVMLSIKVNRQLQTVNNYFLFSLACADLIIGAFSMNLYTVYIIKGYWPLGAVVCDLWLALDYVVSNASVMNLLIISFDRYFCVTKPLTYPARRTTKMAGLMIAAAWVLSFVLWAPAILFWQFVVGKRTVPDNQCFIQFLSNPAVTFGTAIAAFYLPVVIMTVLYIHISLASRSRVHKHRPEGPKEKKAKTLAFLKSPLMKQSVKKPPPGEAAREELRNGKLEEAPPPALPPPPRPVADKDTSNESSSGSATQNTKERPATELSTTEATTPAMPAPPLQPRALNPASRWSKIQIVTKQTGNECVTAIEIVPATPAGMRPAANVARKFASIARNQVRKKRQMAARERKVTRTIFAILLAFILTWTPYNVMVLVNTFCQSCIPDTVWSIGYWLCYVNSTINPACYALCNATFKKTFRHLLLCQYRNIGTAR
Chain of D(2) dopamine receptor (Homo sapiens) (P14416 whole entry): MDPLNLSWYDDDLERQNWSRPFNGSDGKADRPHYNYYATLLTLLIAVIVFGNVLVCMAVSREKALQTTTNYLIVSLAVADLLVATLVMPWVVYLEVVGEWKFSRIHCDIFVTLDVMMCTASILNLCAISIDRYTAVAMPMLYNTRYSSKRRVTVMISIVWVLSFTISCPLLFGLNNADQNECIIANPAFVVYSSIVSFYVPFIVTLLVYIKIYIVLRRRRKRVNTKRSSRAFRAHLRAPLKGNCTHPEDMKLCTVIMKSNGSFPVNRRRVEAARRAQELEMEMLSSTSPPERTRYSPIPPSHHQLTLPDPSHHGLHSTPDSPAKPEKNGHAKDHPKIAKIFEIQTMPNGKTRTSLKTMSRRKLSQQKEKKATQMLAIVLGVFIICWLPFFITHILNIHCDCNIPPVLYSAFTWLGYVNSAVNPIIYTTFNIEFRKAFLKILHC
Chain of Vasopressin V1a receptor (Homo sapiens) (P37288 whole entry, looked up): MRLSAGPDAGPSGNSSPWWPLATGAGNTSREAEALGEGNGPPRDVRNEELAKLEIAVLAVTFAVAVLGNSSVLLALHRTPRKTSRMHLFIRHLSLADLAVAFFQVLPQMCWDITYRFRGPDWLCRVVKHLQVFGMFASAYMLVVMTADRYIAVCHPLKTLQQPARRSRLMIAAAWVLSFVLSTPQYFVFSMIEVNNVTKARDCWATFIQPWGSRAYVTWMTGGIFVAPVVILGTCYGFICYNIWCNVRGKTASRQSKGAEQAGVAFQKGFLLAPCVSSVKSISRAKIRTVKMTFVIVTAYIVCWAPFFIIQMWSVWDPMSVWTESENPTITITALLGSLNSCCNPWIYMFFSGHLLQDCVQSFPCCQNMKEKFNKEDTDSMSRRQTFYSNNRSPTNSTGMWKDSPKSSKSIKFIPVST

Usually inhibition stands for the change of the read-out against control, counted positive when it falls. For `CCn1c(=O)c(C)cn(Cc2nnc(-c3ccc(F)c(OC)c3F)s2)c1=O`, the inhibition in series [1] is -1.29%; in [3], 3.82%; in series [6] it was -0.13%; in series [7], 0.65%; in [9], -8.57%; in series [12], 12.4%. In addition, the inhibition in [14] was 7.41%; in series [15] it was -3.42%; in [16], -7.45%; in [17] it was -0.14%; in series [19] it was -1.31%. For the same compound, the residual activity in series [2] was 98%; in series [4], 100%; in series [5], 107%; in series [8] it was 88%; in [10] it was 81%; in series [13] it was 92%. For the same compound, the residual activity in series [18] was 103%. Further, in [11], the activity at 10 µM is on record as 93% (not active).

With `CCn1c(=O)c(C)cn(Cc2nnc(-c3ccc(F)c(O)c3F)s2)c1=O`, the inhibition in [1] is 5.8%; in [3] it was 0.32%; in series [6] it was -10%; in series [7], -2.34%; in [9], -6.48%; in [12] it was 24.9%. In addition, the inhibition in series [14] was 10.6%; in [15] it was 8.66%; in [16], -3.65%; in series [17], -5.24%; in [19], -3.03%. Further, the residual activity in [2] is 106%; in series [4] it was 99%; in series [5] it was 96%; in [8], 76%; in series [10] it was 103%; in series [13], 84%. Also, the residual activity in series [18] is 100%. Moreover, the activity at 10 µM in [11] is recorded as 84% (not active).
